For 22 compounds, T/C results are on record in PubChem BioAssay AID264 (DTP/NCI, 2004).

The test system of the experiment is nude mice, LX-1 lung xenograft intrarenal, tumor weight T/C. The experiment is described as follows: NCI In Vivo Anticancer Drug Screen. Data for tumor model Human Lung LX-1 Xenograft (intrarenal inoculation) in NU/NU Swiss (nude) mice. The conditions noted are these: endpoint: mean tumor weight change, higher = larger tumour. The procedure: The antitumor activity of compounds was measured in mice bearing transplantable tumors. Survival or tumor size were measured and the results are expressed as the measurement made in the treated group (T) divided by the measurement made in the vehicle treated control group (C). The tumor model used in this assay is Human Lung LX-1 Xenograft (intrarenal inoculation) in NU/NU Swiss (nude) mice
In general terms: Xenograft models place foreign cells or tissue in a host animal.

Where [1] appears, read: dose: 300.0 mg/kg/injection, schedule: Q04DX003 (sc), vehicle: saline with Tween-80.
Setting [2] is: dose: 600.0 mg/kg/injection, schedule: Q04DX003 (sc), vehicle: saline with Tween-80.
[3] abbreviates: dose: 1200.0 mg/kg/injection, schedule: Q04DX003 (sc), vehicle: saline with Tween-80.
Setting [4] is: dose: 300.0 mg/kg/injection, schedule: Q04DX003 (sc), vehicle: Klucel (hydroxypropylcellulose) (HPC).
Setting [5] is: dose: 600.0 mg/kg/injection, schedule: Q04DX003 (sc), vehicle: Klucel (hydroxypropylcellulose) (HPC).
[6] abbreviates: dose: 1200.0 mg/kg/injection, schedule: Q04DX003 (sc), vehicle: Klucel (hydroxypropylcellulose) (HPC).
Where [7] appears, read: dose: 2400.0 mg/kg/injection, schedule: Q04DX003 (sc), vehicle: saline with Tween-80.
Where [8] appears, read: dose: 150.0 mg/kg/injection, schedule: Q04DX003 (sc), vehicle: saline with Tween-80.
The mark [9] stands for this setting: dose: 25.0 mg/kg/injection, schedule: Q01DX010 (sc), vehicle: Klucel (hydroxypropylcellulose) (HPC).
[10] abbreviates: dose: 50.0 mg/kg/injection, schedule: Q01DX010 (sc), vehicle: Klucel (hydroxypropylcellulose) (HPC).
The mark [11] stands for this setting: dose: 100.0 mg/kg/injection, schedule: Q01DX010 (sc), vehicle: Klucel (hydroxypropylcellulose) (HPC).
Where [12] appears, read: dose: 200.0 mg/kg/injection, schedule: Q01DX010 (sc), vehicle: Klucel (hydroxypropylcellulose) (HPC).
The mark [13] stands for this setting: dose: 400.0 mg/kg/injection, schedule: Q01DX010 (sc), vehicle: Klucel (hydroxypropylcellulose) (HPC).
[14] abbreviates: dose: 150.0 mg/kg/injection, schedule: Q04DX003 (sc), vehicle: saline.
Setting [15] is: dose: 100.0 mg/kg/injection, schedule: Q01DX010 (sc), vehicle: water.

SMILES strings stand for the structures. Several values for one entry are separate records, joined by “and”; a condition that tells them apart may be missing. Equal entries are not always repeated. Records with an inconclusive call do not appear.

For the compound `NCCc1cc(O)c(O)c(O)c1`, the T/C runs as follows: (dose: 100.0 mg/kg/injection, schedule: Q04DX003 (sc), vehicle: saline) 83 % of control; (dose: 200.0 mg/kg/injection, schedule: Q04DX003 (sc), vehicle: saline) 96 % of control; (dose: 800.0 mg/kg/injection, schedule: Q04DX003 (sc), vehicle: saline) 91 % of control.
As to `Nc1nncs1`, the T/C (dose: 12.5 mg/kg/injection, schedule: Q01DX010 (sc), vehicle: saline) was 104 % of control.
On to `N=C(N)SCc1c2ccccc2c(CSC(=N)N)c2ccccc12`, for which the T/C (dose: 100.0 mg/kg/injection, schedule: Q04DX003 (sc), vehicle: suspension in saline) is 104 % of control; the T/C (dose: 400.0 mg/kg/injection, schedule: Q04DX003 (sc), vehicle: suspension in saline) is 93 % of control; the T/C (dose: 800.0 mg/kg/injection, schedule: Q04DX003 (sc), vehicle: suspension in saline) was 96 % of control.
`O=C(NO)c1ccc(O)c(O)c1`: the T/C is 103 % of control (dose: 200.0 mg/kg/injection, schedule: Q04DX003 (sc), vehicle: distilled water + Tween-80); 74 % of control (dose: 400.0 mg/kg/injection, schedule: Q04DX003 (sc), vehicle: distilled water + Tween-80); 78 % of control (dose: 800.0 mg/kg/injection, schedule: Q04DX003 (sc), vehicle: distilled water + Tween-80).
On to `Cc1c2cc(Cl)c3ccccc3c2c[n+]2ccccc12`, for which the T/C is 66 % of control under setting [1], 81 % of control under setting [2] and 70 % of control under setting [3].
For `CC(=O)OC1=NC(C)c2c1cc(OC(C)=O)[nH]c2=O` (stereo unspecified), the T/C runs as follows: (dose: 150.0 mg/kg/injection, schedule: Q04DX003 (sc), vehicle: Klucel (hydroxypropylcellulose) (HPC)) 90 % of control; under setting [4], 87 % of control; under setting [5], 87 % of control; under setting [6], 74 % of control.
On to `NC(=S)N/N=C/c1ccc(OC(=O)COc2ccccc2)cn1`, for which the T/C is 77 % of control under setting [1], 73 % of control under setting [2] and 37 % of control under setting [3].
Consider `COc1cccc(C2NC(=O)c3c(n[nH]c3N)S2)c1O` (stereo unspecified), for which the T/C under setting [1] was 171 % of control, the T/C under setting [2] is 77 % of control, the T/C under setting [3] was 95 % of control and the T/C under setting [7] is 162 % of control.
Regarding `COC1=C(OC)C(=O)C(Sc2ccc3ccccc3c2)=CC1=O`, the T/C was 85 % of control (dose: 75.0 mg/kg/injection, schedule: Q04DX003 (sc), vehicle: saline with Tween-80); 93 % of control under setting [8]; 115 % of control (dose: 200.0 mg/kg/injection, schedule: Q04DX003 (sc), vehicle: saline with Tween-80); 80 % of control under setting [1]; 104 % of control (dose: 400.0 mg/kg/injection, schedule: Q04DX003 (sc), vehicle: saline with Tween-80); 92 % of control (dose: 800.0 mg/kg/injection, schedule: Q04DX003 (sc), vehicle: saline with Tween-80). Also, under “dose: 1600.0 mg/kg/injection, schedule: Q04DX003 (sc), vehicle: saline with Tween-80”, the T/C is 79 % of control.
For `O=C(C/C(=N\C(=S)Nc1cc(C(F)(F)F)ccc1Cl)NO)N1CCCC1`, the T/C under setting [1] is 70 % of control, the T/C under setting [2] was 120 % of control, the T/C under setting [3] is 104 % of control and the T/C under setting [7] was 106 % of control.
As for `CNC(=O)OCc1c(COC(=O)NC)c(C)n(-c2ccc(OC)cc2)c1C`, the T/C reads like this: under setting [9], 51 % of control; under setting [10], 59 % of control and 63 % of control; (dose: 50.0 mg/kg/injection, schedule: Q04DX003 (sc), vehicle: Klucel (hydroxypropylcellulose) (HPC)) 38 % of control; (dose: 800.0 mg/kg/injection, schedule: Q04DX003 (sc), vehicle: Klucel (hydroxypropylcellulose) (HPC)) 87 % of control.
Turning to `CCCC(=O)OCc1cc(=O)n(C)c2c3c4c(cc12)c(C)cc(=O)n4CO3`, the T/C is 89 % of control under setting [9], 70 % of control under setting [10], 48 % of control under setting [11] and 63 % of control under setting [12].
Consider `CSc1ncnc2c1ncn2C1OC(CO)C(O)C1O` (stereo unspecified), for which the T/C (dose: 75.0 mg/kg/injection, schedule: Q04DX003 (sc), vehicle: saline + alcohol) was 166 % of control and the T/C (dose: 150.0 mg/kg/injection, schedule: Q04DX003 (sc), vehicle: saline + alcohol) is 22 % of control.
In the case of `OC(CBr)C(O)C(O)C(O)CBr` (stereo unspecified), the T/C is 112 % of control (dose: 15.0 mg/kg/injection, schedule: Q01DX010 (sc), vehicle: Klucel (hydroxypropylcellulose) (HPC)); 57 % of control (dose: 60.0 mg/kg/injection, schedule: Q01DX010 (sc), vehicle: Klucel (hydroxypropylcellulose) (HPC)); 89 % of control under setting [12]; 96 % of control under setting [13]; 115 % of control (dose: 800.0 mg/kg/injection, schedule: Q01DX010 (sc), vehicle: Klucel (hydroxypropylcellulose) (HPC)).
For `CC[C@]1(O)C[C@H]2CN(CCc3c([nH]c4ccccc34)[C@@](C(=O)OC)(c3cc4c(cc3OC)N(C=O)[C@H]3[C@@](O)(C(=O)OC)[C@H](OC(C)=O)[C@]5(CC)C=CCN6CC[C@]43[C@@H]65)C2)C1`, the T/C (dose: 0.13 mg/kg/injection, schedule: Q01DX010 (sc), vehicle: saline) is 69 % of control; the T/C (dose: 0.25 mg/kg/injection, schedule: Q01DX010 (sc), vehicle: saline) is 102 % of control; the T/C (dose: 0.5 mg/kg/injection, schedule: Q01DX010 (sc), vehicle: saline) is 1 % of control.
Consider `N=c1nc2n(cc1F)[C@@H]1O[C@H](CO)[C@@H](O)[C@@H]1O2`, for which the T/C (dose: 300.0 mg/kg/injection, schedule: Q04DX003 (sc), vehicle: suspension in saline) is 102 % of control; the T/C (dose: 600.0 mg/kg/injection, schedule: Q04DX003 (sc), vehicle: suspension in saline) is 57 % of control; the T/C (dose: 1200.0 mg/kg/injection, schedule: Q04DX003 (sc), vehicle: suspension in saline) was 80 % of control; the T/C (dose: 2400.0 mg/kg/injection, schedule: Q04DX003 (sc), vehicle: suspension in saline) is 87 % of control.
For `CN(C=O)C(C(=O)Nc1cccc2c(OC(=O)C(N(C)C=O)(N(C)C=O)N(C)C=O)c(N=Nc3ccc(S(=O)(=O)Nc4nccs4)cc3)cc(N=Nc3ccc(S(=O)(=O)Nc4nccs4)cc3)c12)(N(C)C=O)N(C)C=O` (tested in a mixture with another compound), the T/C reads like this: under setting [8], 109 % of control; under setting [1], 71 % of control; under setting [2], 120 % of control; under setting [3], 95 % of control.
For `[Cl][Sn]([c]1ccccc1)[c]1ccccc1`, the T/C by setting is: under setting [14], 92 % of control; (dose: 600.0 mg/kg/injection, schedule: Q04DX003 (sc), vehicle: saline) 84 % of control.
Regarding `CC(/C=N/N=C(N)N)=N\N=C(N)N`, the T/C was 81 % of control (dose: 12.5 mg/kg/injection, schedule: Q01DX010 (sc), vehicle: water); 78 % of control (dose: 25.0 mg/kg/injection, schedule: Q01DX010 (sc), vehicle: water); 58 % of control under setting [15].
Take `O=C(O)CSc1nc(-c2ccccc2)c(-c2ccccc2)n1-c1ccccn1`: the T/C (dose: 50.0 mg/kg/injection, schedule: Q01DX010 (sc), vehicle: water) was 94 % of control and the T/C under setting [15] was 60 % of control.
With `COc1c(CNC(=O)CCl)cc2[nH]c(C)cc2c1CNC(=O)CCl`, the T/C by setting is: under setting [11], 76 % of control; under setting [12], 52 % of control; under setting [4], 91 % of control; under setting [13], 37 % of control; under setting [5], 90 % of control; under setting [6], 68 % of control.
In the case of `O=C1C(O)=C(c2ccccc2)C(=O)C(O)=C1c1ccccc1`, the T/C is, setting by setting: (dose: 75.0 mg/kg/injection, schedule: Q04DX003 (sc), vehicle: saline) 80 % of control; under setting [14], 71 % of control.
